From patent publication US6472348B1, “Pyridone derivatives and herbicides” (Kumiai Chemical Industry Co., Ltd., priority 1996, dated 2002)

Experiments:
[1] = system: common lambsquarters (Ch); assay: Test Example 7: crop plant selectivity by upland field soil treatment (corn), herbicidal effects; assay type: in vivo; set-up: scale not given here; settings: 21st day after application
Method in brief: (§1)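 Values are ratings of herbicidal effect and phytotoxicity on a standard scale, taken 21 days after application. Test species were sown together with corn in sand-filled pots, covered with soil, and grown in a greenhouse.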

slender amaranth (Am) [2] = assay: as above; assay type: in vivo; set-up: scale not given here; settings: 21st day after application
Method in brief: as §1

monochoria (Mo) = assay: Test Example 1: herbicidal effects by paddy field soil treatment; assay type: in vivo; settings: 100 g of the active ingredient per 10 ares, 21st day after the application, index 0-5 of Table 47;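 note: grade of growth control; 5 = at least 90%; 4 = 70 to 90%; 3 = 50 to 70%; 2 = 30 to 50%; 1 = 10 to 30%; 0 = under 10%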
Method in brief: (§2)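 Scoring of herbicidal effect came 21 days after application of 100 g active ingredient per 10 ares to flooded (3 cm) paddy-soil pots sown with barnyardgrass, monochoria and bulrush, kept in a greenhouse.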

bulrush (Sc) = assay: as above; assay type: in vivo; settings: 100 g of the active ingredient per 10 ares, 21st day after the application, index 0-5 of Table 47;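 note: grade of growth control; 5 = at least 90%; 4 = 70 to 90%; 3 = 50 to 70%; 2 = 30 to 50%; 1 = 10 to 30%; 0 = under 10%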
Method in brief: as §2

barnyardgrass (Ec) = assay: as above; assay type: in vivo; settings: 100 g of the active ingredient per 10 ares, 21st day after the application, index 0-5 of Table 47;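 note: grade of growth control; 5 = at least 90%; 4 = 70 to 90%; 3 = 50 to 70%; 2 = 30 to 50%; 1 = 10 to 30%; 0 = under 10%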
Method in brief: as §2

soybean (Gl) = assay: Test Example 6: crop plant selectivity by upland field soil treatment (soybean), phytotoxicity; assay type: in vivo; set-up: scale not given here; settings: 21st day after application
Method in brief: (§3)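 Seeds are sown in sand and covered with soil. The soil is treated with test compound. Pots are kept in a greenhouse. Weed control and soybean damage are rated visually 21 days after application.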

pale smartweed (Po) = assay: Test Example 9: crop plant selectivity by upland field foliage treatment (wheat), herbicidal effects; assay type: in vivo; set-up: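 grade of growth control; 5 = at least 90%; 4 = 70 to 90%; 3 = 50 to 70%; 2 = 30 to 50%; 1 = 10 to 30%; 0 = under 10%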; settings: dose 1.6 g ai/10a, 14th day after treatment
Method in brief: (§4)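 Wheat and weeds sown in sand-filled pots, grown 2 weeks in a greenhouse, then foliage-treated. Herbicidal effect and crop phytotoxicity were scored 14 days after treatment against a rating scale.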

[3] = system: common lambsquarters (Ch); assay: as above; assay type: in vivo; set-up: scale not given here; settings: dose 1.6 g ai/10a, 14th day after treatment
Method in brief: as §4

China jute (Ab) [4] = assay: as above; assay type: in vivo; set-up: scale not given here; settings: dose 1.6 g ai/10a, 14th day after treatment
Method in brief: as §4

slender amaranth (Am) [5] = assay: as above; assay type: in vivo; set-up: scale not given here; settings: dose 1.6 g ai/10a, 14th day after treatment
Method in brief: as §4

corn (Ze) = assay: Test Example 11: crop plant selectivity by upland field foliage treatment (corn), phytotoxicity; settings: dose 1.6 g ai/10a
Method in brief: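 Corn with pale smartweed, slender amaranth, common lambsquarters and China jute sown in sand-filled pots and grown 2 weeks in a greenhouse before foliage treatment. Herbicidal effect and crop phytotoxicity scored on day 14 after treatment against a rating standard.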

[6] = system: common lambsquarters (Ch); assay: Test Example 6: crop plant selectivity by upland field soil treatment (soybean), herbicidal effects; assay type: in vivo; set-up: scale not given here; settings: 21st day after application
Method in brief: as §3

China jute (Ab) [7] = assay: as above; assay type: in vivo; set-up: scale not given here; settings: 21st day after application
Method in brief: as §3

[8] = upland field foliage treatment, 14th day after treatment

Row | Structure (SMILES) | Herbicidal effects Ch ([1]; dose 6.3 g ai/10a) | Herbicidal effects Am (slender amaranth (Am) [2]; dose 6.3 g ai/10a) | Herbicidal effects Mo (monochoria (Mo)) | Herbicidal effects Sc (bulrush (Sc)) | Herbicidal effects Ec (barnyardgrass (Ec)) | Phytotoxicity Gl (soybean (Gl); dose 6.3 g ai/10a) | Herbicidal effects Po (pale smartweed (Po)) | Herbicidal effects Ch [3] | Herbicidal effects Ab (China jute (Ab) [4]) | Herbicidal effects Am (slender amaranth (Am) [5]) | Phytotoxicity Ze (corn (Ze); [8]) | Herbicidal effects Ch ([6]; dose 6.3 g ai/10a) | Herbicidal effects Ab (China jute (Ab) [7]; dose 6.3 g ai/10a) | Phytotoxicity Ze (corn (Ze); corn, foliage treatment, evaluated on 14th day after treatment, index per Table 47) | Herbicidal effects Ch ([1]; dose 1.6 g ai/10a) | Herbicidal effects Am (slender amaranth (Am) [2]; dose 1.6 g ai/10a) | Phytotoxicity Gl (soybean (Gl); dose 1.6 g ai/10a) | Herbicidal effects Ch ([6]; dose 1.6 g ai/10a) | Herbicidal effects Ab (China jute (Ab) [7]; dose 1.6 g ai/10a)
1 | C=CCN1C(=O)COc2cc(Cl)c(-c3ccc(C(F)(F)F)n(C)c3=O)cc21 [Compound 2-26] | 5 | 5 | 5 | 5 | 5 | 1 | 5 | 5 | 5 | 5 | 2 | 5 | 5 |  |  |  |  |  | 
2 | CCCc1cc2c(-c3ccc(C(F)(F)F)n(C)c3=O)c(F)cc(Cl)c2o1 [Compound 4-3] | 5 | 5 | 5 | 5 | 5 | 1 | 5 | 5 | 5 | 5 | 2 | 5 | 5 |  |  |  |  |  | 
3 | CCc1cc2c(Cl)cc(F)c(-c3ccc(C(F)(F)F)n(C)c3=O)c2o1 [Compound 5-2] | 5 | 5 | 5 | 5 | 5 | 1 | 5 | 5 | 5 | 5 |  | 5 | 5 | 2 |  |  |  |  | 
4 | Cn1c(C(F)(F)F)ccc(-c2cc(C#N)c(Cl)cc2F)c1=O [Compound No. 1-119, 3-(4-chloro-5-cyano-2-fluorophenyl)-1-methyl-6-trifluoromethyl-2(1H)-pyridone] | 5 | 5 | 5 | 5 | 5 | 2 | 5 | 5 | 4 | 5 | 2 | 5 | 5 |  |  |  |  |  | 
5 | CCCC(=O)c1cc(-c2ccc(C(F)(F)F)n(C)c2=O)c(F)cc1Cl [Compound No. 1-194, 3-[4-chloro-2-fluoro-5-(1-oxobutyl)phenyl]-1-methyl-6-trifluoromethyl-2(1H)-pyridone] | 5 | 5 | 5 | 5 | 5 | 1 | 5 | 5 | 5 | 5 | 1 | 5 | 5 |  |  |  |  |  | 
6 | Cn1c(C(F)(F)F)ccc(-c2c(F)cc(Cl)c3oc(CO)cc23)c1=O [Compound No. 4-5, 3-(7-chloro-5-fluoro-2-hydroxymethylbenzofuran-4-yl)-1-methyl-6-trifluoromethyl-2-(1H)-pyridone] | 5 | 5 | 5 | 5 | 5 | 2 | 5 | 5 | 5 | 5 | 1 | 5 | 5 |  |  |  |  |  | 
7 | Cn1c(C(F)(F)F)ccc(-c2c(F)cc(Cl)c3occc23)c1=O [Compound No. 4-28, 3-(7-chloro-5-fluorobenzofuran-4-yl)-1-methyl-6-trifluoromethyl-2-(1H)-pyridone] |  |  | 5 | 5 | 5 |  | 5 | 5 | 5 | 5 | 2 |  |  |  | 5 | 5 | 2 | 5 | 5
